“Also recorded” adds a separate entry of the source. Like-named read-outs stand apart in the source and are kept apart here.
What was measured:
[1] = system: SCC 2/88 cells; test: Growth of SCC 2/88 cells by fluorescence DNA concentration analysis; type: cell-based, canine; conditions: three-day treatment
Excerpt: Cell culture. […] Each experiment was run in triplicate.

[2] = system: PTHrP production in SCC 2/88 cells; conditions: Merryman et al 1993, cited from earlier work
[3] = system: osteosarcoma cell lines; conditions: four canine osteosarcoma cell lines; cited from earlier work
[4] = system: human and rat liver cancer cell lines; conditions: cited from earlier work
[5] = system: murine squamous cell carcinoma (SCC) tumor model; conditions: in vitro and in vivo; cited from earlier work
[6] = system: involucrin in SCC 2/88 cells; test: Cell differentiation: involucrin by SDS-PAGE and Western blot in SCC 2/88 cells; type: cell-based, canine; conditions: post-confluent cells, up to 7 days; for involucrin expression (anti-involucrin reactive bands) compared to vehicle: 10^−7 M; for involucrin expression (anti-involucrin reactive bands): 10^−9 M
Procedure: Cell differentiation. Involucrin was extracted from cultured SCC 2/88 cells grown in 175 cm2 culture flasks (Becton Dickinson, Franklin Lakes, N.J.) for one week. Post confluent cells were treated with either vehicle, 1,25(OH)2D3, EB 1089, or analog V at concentrations 10^−7 M and 10^−9 M for up to 7 days. Cells were washed and released from the culture flask with phosphate buffered saline containing 20 mM EDTA. Cells were disrupted with a Branson sonifier (Branson Ultrasonic Corporation, Danbury, Conn.) at a setting of 6 for 3×30 seconds and centrifuged at 100,000 G for 30 minutes at 10° C. The supernatant (cytosol) was made 10% in glycerol and 62.5 mM in Tris-HCl (pH 6.8) and heated for 10 minutes at 100° C. The denatured proteins were removed by centrifugation at 15,000 G for 15 minutes. Involucrin in the supernatant was collected stored at −70° C. until Western blot analysis was performed.
Extracted proteins (20 μg) were separated by electrophoresis through 7.5 % sodium dodecyl sulfate (SDS)-polyacrylamide gel, and transferred to nitrocellulose membrane with use of a semi-dry transferred technique (Bio-Rad laboratories, Hercules, Calif.). The membrane was then blocked in blocking solution (10% dry milk, 0.05% Tween 20 in phosphate buffered saline) overnight at 4° C. The preblocked membrane was incubated in mouse monoclonal antibody against involucrin (Research Diagnotics Inc., Flanders, N.J.) 1:500 for an hour and extensively washed in PBS (pH 7.4) containing 0.05% Tween 20. The blot was then incubated in goat anti-mouse IgG (horseradish peroxidase) (Bio-Rad laboratories, Hercules, Calif.) 1:500 for an hour. After further washing in phosphate buffered saline containing 0.05% Tween 20, the blot was developed for 1 minute in the LumiGLO Chemiluminescent substrate (Kirkegaard and Perry laboratories, Gaithersburg, Md.), and then exposed to x-ray film for 1–5 seconds. After exposure, the membrane was stripped and incubated with mouse monoclonal anti-β-actin (Sigma, Saint Louis, Mo.) to normalize for protein loading. AlphaImager™ Alpha Innotech Corporation, San Leandro) measured the density of involucrin bands.

[7] = system: PTHrP production in human squamous cell lines; conditions: cited from earlier work
[8] = system: human prostate cancer cell line; conditions: cited from earlier work
[9] = system: thyroid anaplastic carcinoma cell lines; conditions: four thyroid anaplastic carcinoma cell lines; cited from earlier work
[10] = system: TGF-β mRNA in SCC 2/88 cells; test: Northern blot analysis of TGF-β mRNA expression in SCC 2/88 cells; type: cell-based, canine; conditions: 10^−7 M, 0, 3, 6, 12 and 24 hrs
[11] = system: PTHrP mRNA in SCC 2/88 cells; test: Northern blot analysis of PTHrP mRNA expression in SCC 2/88 cells; type: cell-based, canine

Row | Molecule | growth of SCC 2/88 cells (concentration of DNA) ([1]; 10^−7 M) | PTHrP production in SCC 2/88 cells [2] | involucrin expression (anti-involucrin reactive bands) compared to vehicle [6] | involucrin expression (anti-involucrin reactive bands) [6] | cell growth [9] | growth of SCC 2/88 cells (concentration of DNA) ([1]; 10^−9 M) | further results
1 | C=C1/C(=C\C=C2/CCC[C@]3(C)[C@@H]([C@H](C)CCCC(C)(C)O)CC[C@@H]23)C[C@@H](O)C[C@@H]1O [1,25(OH)2D3] | inhibit cell proliferation; also recorded: significantly reduced the concentration of DNA | promote PTHrP production | diminished involucrin expression | diminished involucrin expression | diphasic cell growth in three of the four cell lines | – | PTHrP production in SCC 2/88 cells ([2]; listed as 1,25-(OH)2D3): stimulates production of parathyroid hormone-related protein; alkaline phosphatase activity [3]: increases alkaline phosphatase activity in one cell line; osteocalcin production [3]: osteocalcin production in two lines; type I collagen production [3]: type I collagen production in three lines; anti-proliferative activity [4]: anti-proliferative activity in some human and rat liver cancer cell lines; antitumor effects [5]: significant antitumor effects; PTHrP production [7]: inhibits PTHrP production; cell growth and differentiation [8]: inhibits cell growth and promotes differentiation in a dose-dependent manner; TGF-β mRNA expression compared to vehicle-treated control [10]: did not differ significantly
2 | C=C1/C(=C\C=C2/CCC[C@]3(C)[C@@H]([C@H](C)OCCC(C)(C)O)CC[C@@H]23)C[C@@H](O)C[C@@H]1O [22-oxacalcitriol] | – | – | – | – | dose-dependent inhibition of cell growth in all four of the cell lines | – | –
3 | C=C1/C(=C\C=C2/CCC[C@]3(C)[C@@H]([C@H](C)/C=C/C=C/C(O)(CC)CC)CC[C@@H]23)C[C@@H](O)C[C@@H]1O [EB 1089, 22,24-diene-24a,26a,27a-trihomo-1α,25-dihydroxyvitamin D3] | inhibit cell proliferation; also recorded: significantly reduced the concentration of DNA; also recorded: significantly diminished cell growth | promote PTHrP production | more weakly defined than that of the vehicle-treated control; also recorded: diminished involucrin expression; also recorded: weak or substantially absent anti-involucrin reactive bands | diminished involucrin expression; also recorded: diminished levels of involucrin | – | inhibits cell growth significantly; also recorded: significantly reduced the concentration of DNA; also recorded: reduced cell growth at a lower confidence level | –
4 | C=C1C(=CC=C2CCCC3(C)C(C(C)CC#CC(C)(C)O)=CCC23)CC(O)CC1O (stereo not drawn) [analog V, 1,25-dihydroxy-16-ene-23-yne-vitamin D] | inhibit cell proliferation; also recorded: significantly reduced the concentration of DNA; also recorded: significantly diminished cell growth | promote PTHrP production | more weakly defined than that of the vehicle-treated control; also recorded: diminished involucrin expression; also recorded: weak or substantially absent anti-involucrin reactive bands | more intense than those of the other treated groups; also recorded: stronger anti-involucrin reactive band | – | no significant inhibition of cell growth | –
5 | TGF-β | – | – | – | – | – | – | increase in PTHrP mRNA compared to vehicle-treated control ([11]; TGF-β 1.5 ng/mL, 6, 12 and 24 hr): 5- to 20 fold; increase in PTHrP mRNA compared with vehicle-treated control ([11]; TGF-β, after 24 hr): 2- to 20 fold
